Results: paper PMC6352943, “Novel pyrazolo[3,4-d]pyrimidines: design, synthesis, anticancer activity, dual EGFR/ErbB2 receptor tyrosine kinases inhibitory activity, effects on cell cycle profile and caspase-3-mediated apoptosis” (Journal of Enzyme Inhibition and Medicinal Chemistry, 2019)

How the values were obtained:
Assay in all cases: NCI 60 cell line single dose screen (SRB)
Type in all cases: cell-based
[1] = tested on: A498; settings: Homo sapiens; A498 (renal cancer), single dose 10^−5 M, 48 h; read-out: Growth inhibition percentage
Protocol: (§1) Anticancer activity screening of the newly synthesised compounds was measured in vitro utilising 60 different human tumour cell lines provided by US National Cancer Institute according to previously reported standard procedure[27–29] as follows: Cells are inoculated into 96-well microtitre plates in 100 ml. After cell inoculation, the microtitre plates are incubated at 37 °C, 5% CO2, 95% air and 100% relative humidity for 24 h prior to addition of experimental compounds. After 24 h, two plates of each cell line are fixed in situ with TCA, to represent a measurement of the cell population for each cell line at the time of drug addition (Tz). Experimental compounds are solubilised in dimethyl sulphoxide at 400-fold the desired final maximum test concentration and stored frozen prior to use. At the time of compound addition, an aliquot of frozen concentrate is thawed and diluted to twice the desired final maximum test concentration with complete medium containing […] gentamicin. Aliquots of […] of the compounds dilutions are added to the appropriate microtitre wells already containing 100 ml of medium, resulting in the required final compound concentration. Following compound addition, the plates are incubated for an additional 48 h at 37 °C, 5% CO2, 95% air, and 100% relative humidity. For adherent cells, the assay is terminated by the addition of cold trichloroacetic acid (TCA). Cells are fixed in situ by the gentle addition of 50 ml of cold 50% (w/v) TCA (final concentration, 10% TCA) and incubated for 60 min at 4 °C. The supernatant is discarded, and the plates are washed five times with tap water and air-dried. Sulphorhodamine B (SRB) solution (100 ml) at 0.4% (w/v) in 1% acetic acid is added to each well, and plates are incubated for 10 min at room temperature. After staining, unbound dye is removed by washing five times with 1% acetic acid and the plates are air-dried. Bound stain is subsequently solubilised with 10 mM trizma base, and the absorbance is read on an automated plate reader at a wavelength of 515 nm. For suspension cells, the methodology is the same except that the assay is terminated by fixing settled cells at the bottom of the wells by gently adding 50 ml of 80% TCA (final concentration, 16% TCA). Using the absorbance measurements [time zero, (Tz), control growth, (C), and test growth in the presence of compound (Ti)], the percentage growth is calculated for each compound. Percentage growth inhibition is calculated as: [(Ti – Tz)/(C – Tz)] x 100 for concentrations for which Ti >/=Tz. [(Ti – Tz)/Tz] x 100 for concentrations for which Ti < Tz.

[2] = tested on: A549/ATCC; settings: Homo sapiens; A549/ATCC (non-small cell lung cancer), single dose 10^−5 M, 48 h; read-out: Growth inhibition percentage
Protocol: as §1

[3] = tested on: ACHN; settings: Homo sapiens; ACHN (renal cancer), single dose 10^−5 M, 48 h; read-out: Growth inhibition percentage
Protocol: as §1

[4] = tested on: CCRF-CEM; settings: Homo sapiens; CCRF-CEM (leukemia), single dose 10^−5 M, 48 h; read-out: Growth inhibition percentage
Protocol: as §1

[5] = tested on: DU-145; settings: Homo sapiens; DU-145 (prostate cancer), single dose 10^−5 M, 48 h; read-out: Growth inhibition percentage
Protocol: as §1

[6] = tested on: HCT-116; settings: Homo sapiens; HCT-116 (colon cancer), single dose 10^−5 M, 48 h; read-out: Growth inhibition percentage
Protocol: as §1

[7] = tested on: HCT-15; settings: Homo sapiens; HCT-15 (colon cancer), single dose 10^−5 M, 48 h; read-out: Growth inhibition percentage
Protocol: as §1

[8] = tested on: HL-60(TB); settings: Homo sapiens; HL-60(TB) (leukemia), single dose 10^−5 M, 48 h; read-out: Growth inhibition percentage
Protocol: as §1

[9] = tested on: HT29; settings: Homo sapiens, HT-29; HT29 (colon cancer), single dose 10^−5 M, 48 h; read-out: Growth inhibition percentage
Protocol: as §1

[10] = tested on: MALME-3M; settings: Homo sapiens; MALME-3M (melanoma), single dose 10^−5 M, 48 h; read-out: Growth inhibition percentage
Protocol: as §1

[11] = tested on: MDA-MB-231/ATCC; settings: Homo sapiens; MDA-MB-231/ATCC (breast cancer), single dose 10^−5 M, 48 h; read-out: Growth inhibition percentage
Protocol: as §1

[12] = tested on: MDA-MB-468; settings: Homo sapiens; MDA-MB-468 (breast cancer), single dose 10^−5 M, 48 h; read-out: Growth inhibition percentage
Protocol: as §1

[13] = tested on: NCI-H460; settings: Homo sapiens; NCI-H460 (non-small cell lung cancer), single dose 10^−5 M, 48 h; read-out: Growth inhibition percentage
Protocol: as §1

[14] = tested on: NCI/ADR-RES; settings: Homo sapiens; NCI/ADR-RES (ovarian cancer), single dose 10^−5 M, 48 h; read-out: Growth inhibition percentage
Protocol: as §1

[15] = tested on: OVCAR-3; settings: Homo sapiens; OVCAR-3 (ovarian cancer), single dose 10^−5 M, 48 h; read-out: Growth inhibition percentage
Protocol: as §1

[16] = tested on: OVCAR-5; settings: Homo sapiens; OVCAR-5 (ovarian cancer), single dose 10^−5 M, 48 h; read-out: Growth inhibition percentage
Protocol: as §1

[17] = tested on: OVCAR-8; settings: Homo sapiens; OVCAR-8 (ovarian cancer), single dose 10^−5 M, 48 h; read-out: Growth inhibition percentage
Protocol: as §1

[18] = tested on: SF-295; settings: Homo sapiens; SF-295 (CNS cancer), single dose 10^−5 M, 48 h; read-out: Growth inhibition percentage
Protocol: as §1

[19] = tested on: SK-MEL-2; settings: Homo sapiens; SK-MEL-2 (melanoma), single dose 10^−5 M, 48 h; read-out: Growth inhibition percentage
Protocol: as §1

[20] = tested on: SK-MEL-5; settings: Homo sapiens; SK-MEL-5 (melanoma), single dose 10^−5 M, 48 h; read-out: Growth inhibition percentage
Protocol: as §1

[21] = tested on: UACC-257; settings: Homo sapiens; UACC-257 (melanoma), single dose 10^−5 M, 48 h; read-out: Growth inhibition percentage
Protocol: as §1

Row | SMILES | inhibition at 10 µM [1] | inhibition at 10 µM [2] | inhibition at 10 µM [3] | inhibition at 10 µM [4] | inhibition at 10 µM [5] | inhibition at 10 µM [6] | inhibition at 10 µM [7] | inhibition at 10 µM [8] | inhibition at 10 µM [9] | inhibition at 10 µM [10] | inhibition at 10 µM [11] | inhibition at 10 µM [12] | inhibition at 10 µM [13] | inhibition at 10 µM [14] | inhibition at 10 µM [15] | inhibition at 10 µM [16] | inhibition at 10 µM [17] | inhibition at 10 µM [18] | inhibition at 10 µM [19] | inhibition at 10 µM [20] | other results
1 | Cc1nn(-c2ccc(F)cc2)c2ncnc(Cl)c12 [Compound 6, 4-Chloro-1–(4-fluorophenyl)-3-methyl-1H-pyrazolo[3,4-d]pyrimidine] | 4.71% | 11.6% | 4.11% | 1.47% | 3.05% | 7.98% | 1.32% | 14% | 9.55% | -4.3% | 10.8% | 8.7% | -0.07% | -8.11% | -8.39% | -12.3% | 6.34% | -4.11% | 11% | 5.94% | inhibition at 10 µM [21]: 17.4%
2 | Cc1ccc(Nc2ncnc3c2c(C)nn3-c2ccc(F)cc2)cc1 [Compound 7c, 1–(4-Fluorophenyl)-3-methyl-N-(p-tolyl)-1H-pyrazolo[3,4-d]-pyrimidin-4-amine] | 5.97% | 3.08% | -12.2% | -8.18% | -8.97% | 3.2% | -0.49% | 16% | 11.7% | 1.7% | -2.67% | -15% | -9.33% | -6.46% | -6.58% | -0.5% | 2.02% | -3.83% | 10.9% | -3.74% | inhibition at 10 µM [21]: -7.62%
3 | Cc1nn(-c2ccc(F)cc2)c2ncnc(Nc3ccc(F)c(Cl)c3)c12 [Compound 7d, N-(3-Chloro-4-fluorophenyl)-1–(4-fluorophenyl)-3-methyl-1H-pyrazolo[3,4-d] pyrimidin-4-amine] | -5.43% | 40.5% | 60.4% | 0.7% | -3.13% | 19.2% | 2.75% | 15% | 14.4% | 1.56% | 14.2% | -1.69% | 58.5% | 5.13% | 9.57% | 4.92% | 16.6% | 40% | 2.61% | -0.44% | inhibition at 10 µM [21]: -1.41%
4 | Cc1nn(-c2ccc(F)cc2)c2ncnc(N3CCOCC3)c12 [Compound 8a, 1–(4-Fluorophenyl)-3-methyl-4-morpholino-1H-pyrazolo[3,4-d]pyrimidine] | 4.93% | -0.09% | -10.3% | 2.31% | -7.7% | -7.69% | -2.04% | 22.5% | 7.56% | -10.5% | -10.4% | -7.8% | -8.23% | -6.35% | -5.65% | -3.95% | -5.87% | 0.61% | 1.49% | -0.67% | inhibition at 10 µM [21]: -5.9%
